“And” between values parts separate entries of the source, which are not always exact repeats. Equal values may be shown once.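 Where inhibition never reached the appropriate level, the endpoint shown equals the highest concentration tested. Otherwise, values were interpolated linearly from a five-concentration, 48-hour dose response in 96-well plates. GI50 marks 50% less growth. TGI marks complete inhibition of growth.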
Assays:
Assay in all cases: NCI anticancer screen, dose series, 48 h
[1] = test system: NCI-H226 lung
[2] = test system: KM12 colon
[3] = test system: UACC-257 melanoma
[4] = test system: SN12C renal
[5] = test system: OVCAR-5 ovarian
[6] = test system: MCF7 breast
[7] = test system: SF-268 CNS
[8] = test system: K-562 leukemia
[9] = test system: SK-MEL-2 melanoma
[10] = test system: RPMI-8226 leukemia

In the case of `CNC(=O)/C=C/C1=CN2C(=O)c3ccc(C)c(O)c3NC(OC)C2C1` (stereo not given), the TGI [1] is reported as 0.0731 µM, the TGI [2] is reported as less than 0.0183 µM and the TGI [3] is reported as less than 0.0169 µM. For the same compound, the TGI [4] was 12.1 µM, the TGI [5] was greater than 31 µM and the TGI [6] was 16.6 µM. The TGI [7] was 0.08 µM, the TGI [8] was greater than 100 µM and the TGI [9] was less than 0.01 µM. The TGI [10] was 16.2 µM.

In the case of `O=C(CCN1CCCCC1)c1csc2ccccc12`, the TGI [1] is reported as greater than 100 µM, the TGI [2] is reported as greater than 100 µM and the TGI [3] is reported as greater than 100 µM. For the same compound, the TGI [4] was greater than 100 µM, the TGI [5] was greater than 100 µM and the TGI [6] was 48.1 µM. The TGI [7] was greater than 100 µM, the TGI [8] was greater than 100 µM and the TGI [9] was greater than 100 µM. It also gave a TGI [10] greater than 100 µM.

Work on `COc1ccc2[nH]c(C(=O)OCc3ccc4c(Br)cc(Br)c(O)c4n3)cc2c1` yielded a GI50 [1] of 1.3 µM, a TGI [1] of 2.81 µM and a GI50 [2] of 1.64 µM. For the same compound, the TGI [2] was 3.38 µM, the GI50 [3] was 1.38 µM and the TGI [3] was 2.85 µM. It also gave a GI50 [4] of 0.617 µM, a TGI [4] of 2.02 µM and a GI50 [5] of 1.21 µM. It also gave a TGI [5] of 2.66 µM, a GI50 [6] of 0.442 µM and a TGI [6] of 2.05 µM. The GI50 [7] was 1.48 µM, the TGI [7] was 2.92 µM and the GI50 [8] was 0.495 µM. It also gave a TGI [8] of 4.94 µM, a GI50 [9] of 1.55 µM and a TGI [9] of 3.12 µM. For the same compound, the GI50 [10] was 0.308 µM and the TGI [10] was 1.29 µM.

Compound `C=C(C(=O)c1ccccc1)C(NC(C)(C)C)c1ccccc1` (stereo not given) has a GI50 [1] of 1.63 µM, a TGI [1] of 4.56 µM and a GI50 [2] of 2.22 µM. For the same compound, the TGI [2] was 6.36 µM, the GI50 [3] was 1.69 µM and the TGI [3] was 4.81 µM. The GI50 [4] was 2.12 µM, the TGI [4] was 5.38 µM and the GI50 [5] was 2.37 µM. The TGI [5] was 4.65 µM, the GI50 [6] was 1.06 µM and the TGI [6] was 8.21 µM. The GI50 [7] was 3.61 µM, the TGI [7] was 18.6 µM and the GI50 [8] was 1.91 µM. It also gave a TGI [8] of 11.5 µM, a GI50 [9] of 1.88 µM and a TGI [9] of 4.78 µM. The GI50 [10] was 1.84 µM and the TGI [10] was 6.44 µM.

In the case of `Cc1c(O)cccc1C(=O)N[C@@H](CSc1ccccc1)[C@H](O)CN1C[C@H]2CCCC[C@H]2C[C@H]1C(=O)NC(C)(C)C`, the GI50 [1] is reported as 4.84 µM and 5.57 µM, the TGI [1] is reported as 14 µM and 16.5 µM and the GI50 [2] is reported as 3.45 µM and 4.99 µM. For the same compound, the TGI [2] was 10.4 µM and 20.1 µM, the GI50 [3] was 3.66 µM and 6.84 µM and the TGI [3] was 13.8 µM and 24.7 µM. The GI50 [4] was 4.07 µM and 6.63 µM, the TGI [4] was 12.6 µM and 18.3 µM and the GI50 [5] was 8.95 µM and 6.31 µM. For the same compound, the TGI [5] was 31.6 µM and 19 µM, the GI50 [6] was 6.22 µM and 3.9 µM and the TGI [6] was 24.4 µM and 15.7 µM. For the same compound, the GI50 [7] was 4.5 µM and 5.97 µM, the TGI [7] was 15.8 µM and 26 µM and the GI50 [8] was 3.35 µM and 10.3 µM. The TGI [8] was > 100 µM and 31.3 µM, the GI50 [9] was 5.63 µM and 5.26 µM and the TGI [9] was > 100 µM and 25.4 µM. For the same compound, the GI50 [10] was 2.23 µM and 2.01 µM and the TGI [10] was 4.69 µM and 7.21 µM.
